Data published in the NIST ThermoML archive (doi:10.1016/j.fluid.2012.01.014).

Assays:
[1] = cn = amount concentration of the nth substance listed, in mol/dm3; settings: Ring tensiometer
[2] = Ring tensiometer

CCCCCCCCCCCCCCCC[n+]1ccccc1.[Br-] [1-hexadecylpyridinium bromide] + O
surface tension liquid-gas [mN/m], [1]
Settings	293 K	303 K	313 K
c1 = 1e-08	72.8	71.2	69.6
c1 = 5.01e-08	72.8	71.19	69.59
c1 = 1e-07	72.75	71.18	69.57
c1 = 5.01e-07	72.7	71.13	69.54
c1 = 1e-06	72.6	71.07	69.49
c1 = 5.01e-06	71.7	70.56	69.04
c1 = 1e-05	71.1	69.97	68.52
c1 = 2e-05	69.8	68.91	67.58
c1 = 5.01e-05	67.4	66.38	65.26
c1 = 0.0001	63	61.8	60.65
c1 = 0.0002	54.6	53.41	53.01
c1 = 0.000398	45.5	44.73	44.56
c1 = 0.000631	44.8	44.03	43.87
c1 = 0.000794	45.3	44.04	43.86
c1 = 0.001	44.4	43.92	43.75
c1 = 0.002	44	43.81	43.68
c1 = 0.00398	44.5	43.79	43.64
c1 = 0.00603	44.1	43.62	43.53
c1 = 0.00794	43.2	42.83	42.74
c1 = 0.01	43.2	42.75	42.65
c1 = 0.0302	39.4	38.89	38.9
c1 = 0.0603	38.8	38.02	37.95

O [water]
[2]
Settings	surface tension liquid-gas [mN/m]
293 K	72.8
303 K	71.2
313 K	69.6

O [water] + CCCCCCCCCCCCOS(=O)(=O)[O-].[Na+]
[1], c2 = 0
Settings	surface tension liquid-gas [mN/m]
293 K	72.8
303 K	71.2
313 K	69.6
